Several values for one entry are separate records, joined by “and”; a condition that tells them apart may be missing. Identical values can stand only once.
System: NCI-H23 complex spheroids with HUVEC/MSC, viability
Test: Anticancer human tumor NCI-H23 cell line growth inhibition [RAS];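 also: spheroids exposed to compound for 7 days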;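 as to viability, T/C: 100% = DMSO vehicle control viability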
Settings: for viability, T/C: stronger effect = lower value
How it was run: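 Multi-cell-type spheroids: tumor cells plus HUVEC endothelial cells and mesenchymal stem cells. RAS-pathway inhibitors were combined with targeted agents, each dosed in half-log steps down from clinical Cmax, or from 10 microM when Cmax was unknown.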

[1] = curve of first compound, second compound 0.000949 µM
[2] = curve of first compound, second compound 0.003 µM
[3] = curve of first compound, second compound 0.00949 µM
[4] = curve of first compound, second compound 0.03 µM
[5] = curve of first compound, second compound 0.0949 µM
[6] = curve of first compound, second compound 0.3 µM
[7] = second compound 0.000949 µM, first compound 0.0316 µM
[8] = second compound 0.000949 µM, first compound 0.1 µM
[9] = second compound 0.000949 µM, first compound 0.316 µM
[10] = second compound 0.000949 µM, first compound 1 µM
[11] = second compound 0.000949 µM, first compound 3.16 µM
[12] = second compound 0.000949 µM, first compound 10 µM
[13] = second compound 0.003 µM, first compound 0.0316 µM
[14] = second compound 0.003 µM, first compound 0.1 µM
[15] = second compound 0.003 µM, first compound 0.316 µM
[16] = second compound 0.003 µM, first compound 1 µM
[17] = second compound 0.003 µM, first compound 3.16 µM
[18] = second compound 0.003 µM, first compound 10 µM
[19] = second compound 0.00949 µM, first compound 0.0316 µM
[20] = second compound 0.00949 µM, first compound 0.1 µM
[21] = second compound 0.00949 µM, first compound 0.316 µM
[22] = second compound 0.00949 µM, first compound 1 µM
[23] = second compound 0.00949 µM, first compound 3.16 µM
[24] = second compound 0.00949 µM, first compound 10 µM
[25] = second compound 0.03 µM, first compound 0.0316 µM
[26] = second compound 0.03 µM, first compound 0.1 µM
[27] = second compound 0.03 µM, first compound 0.316 µM
[28] = second compound 0.03 µM, first compound 1 µM
[29] = second compound 0.03 µM, first compound 3.16 µM
[30] = second compound 0.03 µM, first compound 10 µM
[31] = second compound 0.0949 µM, first compound 0.0316 µM
[32] = second compound 0.0949 µM, first compound 0.1 µM
[33] = second compound 0.0949 µM, first compound 0.316 µM
[34] = second compound 0.0949 µM, first compound 1 µM
[35] = second compound 0.0949 µM, first compound 3.16 µM
[36] = second compound 0.0949 µM, first compound 10 µM
[37] = second compound 0.3 µM, first compound 0.0316 µM
[38] = second compound 0.3 µM, first compound 0.1 µM
[39] = second compound 0.3 µM, first compound 0.316 µM
[40] = second compound 0.3 µM, first compound 1 µM
[41] = second compound 0.3 µM, first compound 3.16 µM
[42] = second compound 0.3 µM, first compound 10 µM

## C[C@@H](NC(=O)c1ncnc(N)c1Cl)c1ncc(C(=O)Nc2cc(C(F)(F)F)c(Cl)cn2)s1 + CCn1c(-c2cc(N3CCN(C)CC3)cnc2C(C)OC)c2c3cc(ccc31)-c1csc(n1)CC(NC(=O)C1CC1C)C(=O)N1CCCC(N1)C(=O)OCC(C)(C)C2
[1]
  IC50: 1530 nM
[2]
  IC50: < 31.6 nM
[3]
  IC50: < 31.6 nM
[4]
  IC50: < 31.6 nM
[5]
  IC50: < 31.6 nM
[6]
  IC50: < 31.6 nM
[7]
  viability, T/C: 51.5%
[8]
  viability, T/C: 54.4%
[9]
  viability, T/C: 46.1%
[10]
  viability, T/C: 48.4%
[11]
  viability, T/C: 49.9%
[12]
  viability, T/C: 25%
[13]
  viability, T/C: 39.7%
[14]
  viability, T/C: 33%
[15]
  viability, T/C: 33.9%
[16]
  viability, T/C: 37.2%
[17]
  viability, T/C: 38.5%
[18]
  viability, T/C: 24.6%
[19]
  viability, T/C: 35.3%
[20]
  viability, T/C: 29.5%
[21]
  viability, T/C: 32.5%
[22]
  viability, T/C: 32.8%
[23]
  viability, T/C: 31.7%
[24]
  viability, T/C: 27%
[25]
  viability, T/C: 29.4%
[26]
  viability, T/C: 27.8%
[27]
  viability, T/C: 31.3%
[28]
  viability, T/C: 30.7%
[29]
  viability, T/C: 29.3%
[30]
  viability, T/C: 25.2%
[31]
  viability, T/C: 21.1%
[32]
  viability, T/C: 22.3%
[33]
  viability, T/C: 26.3%
[34]
  viability, T/C: 28.4%
[35]
  viability, T/C: 21.8%
[36]
  viability, T/C: 24.2%
[37]
  viability, T/C: 22.6%
[38]
  viability, T/C: 24.4%
[39]
  viability, T/C: 24.2%
[40]
  viability, T/C: 22.7%
[41]
  viability, T/C: 25.4%
[42]
  viability, T/C: 21.9%

## CCN1CCN(Cc2ccc(Nc3ncc(F)c(-c4cc(F)c5nc(C)n(C(C)C)c5c4)n3)nc2)CC1
Compound 0.00316 µM
  viability, T/C: 100% and 104% (2×) and 103%
Compound 0.01 µM
  viability, T/C: 92% [middle of 4 runs]
Compound 0.0316 µM
  viability, T/C: 78% [middle of 4 runs]
Compound 0.1 µM
  viability, T/C: 70.2% [middle of 4 runs]
Compound 0.316 µM
  viability, T/C: 58% [middle of 4 runs]
Curve of compound
  IC50: > 1000 nM and 434 nM and 646 nM

## CCc1c2c(nc3ccc(O)cc13)-c1cc3c(c(=O)n1C2)COC(=O)[C@]3(O)CC
Compound 0.000949 µM
  viability, T/C: 91.1% [middle of 4 runs]
Compound 0.003 µM
  viability, T/C: 59.1% [middle of 4 runs]
Compound 0.00949 µM
  viability, T/C: 32.2% [middle of 4 runs]
Compound 0.03 µM
  viability, T/C: 14.4% [middle of 4 runs]
Compound 0.0949 µM
  viability, T/C: 8.18% [middle of 4 runs]
Compound 0.3 µM
  viability, T/C: 6.26% [middle of 4 runs]
Curve of compound
  IC50: 4.43 nM [middle of 4 runs]

## CC(C)NCC(C(=O)N1CCN(c2ncnc3c2C(C)CC3O)CC1)c1ccc(Cl)cc1 (centres undefined) + CCn1c(-c2cccnc2C(C)OC)c2c3cc(ccc31)N1CCOC(CC(NC(=O)C(C(C)C)N(C)C(=O)C3(F)CCN(C(=O)C#CC(C)(C)N(C)C)CC3)C(=O)N3CCCC(N3)C(=O)OCC(C)(C)C2)C1
[1]
  IC50: < 31.6 nM
[2]
  IC50: < 31.6 nM
[3]
  IC50: < 31.6 nM
[4]
  IC50: < 31.6 nM
[5]
  IC50: < 31.6 nM
[6]
  IC50: < 31.6 nM
[7]
  viability, T/C: 33.6%
[8]
  viability, T/C: 35.1%
[9]
  viability, T/C: 23.7%
[10]
  viability, T/C: 23.4%
[11]
  viability, T/C: 17.5%
[12]
  viability, T/C: 11.6%
[13]
  viability, T/C: 33.8%
[14]
  viability, T/C: 27.3%
[15]
  viability, T/C: 22%
[16]
  viability, T/C: 18.7%
[17]
  viability, T/C: 18.1%
[18]
  viability, T/C: 10.3%
[19]
  viability, T/C: 28.9%
[20]
  viability, T/C: 24.2%
[21]
  viability, T/C: 25.3%
[22]
  viability, T/C: 19.6%
[23]
  viability, T/C: 14.9%
[24]
  viability, T/C: 12.3%
[25]
  viability, T/C: 30.9%
[26]
  viability, T/C: 25.3%
[27]
  viability, T/C: 25.2%
[28]
  viability, T/C: 20.4%
[29]
  viability, T/C: 13.8%
[30]
  viability, T/C: 12.3%
[31]
  viability, T/C: 24.3%
[32]
  viability, T/C: 26.8%
[33]
  viability, T/C: 22.6%
[34]
  viability, T/C: 19.6%
[35]
  viability, T/C: 13.3%
[36]
  viability, T/C: 12.5%
[37]
  viability, T/C: 21.4%
[38]
  viability, T/C: 23.2%
[39]
  viability, T/C: 22%
[40]
  viability, T/C: 16.6%
[41]
  viability, T/C: 11.6%
[42]
  viability, T/C: 13.5%

## C=CC(=O)N1CCN(c2nc(OCC3CCCN3C)nc3c(F)c(-c4nc(N)cc(C)c4C(F)(F)F)c(Cl)cc23)C(C)C1 (centres undefined) + CCn1c(-c2cc(N3CCN(C)CC3)cnc2C(C)OC)c2c3cc(ccc31)-c1csc(n1)CC(NC(=O)C1CC1C)C(=O)N1CCCC(N1)C(=O)OCC(C)(C)C2
[1]
  IC50: < 3.16 nM
[2]
  IC50: < 3.16 nM
[3]
  IC50: < 3.16 nM
[4]
  IC50: < 3.16 nM
[5]
  IC50: < 3.16 nM
[6]
  IC50: < 3.16 nM
Second compound 0.000949 µM, first compound 0.00316 µM
  viability, T/C: 32.5%
Second compound 0.000949 µM, first compound 0.01 µM
  viability, T/C: 33%
[7]
  viability, T/C: 22.8%
[8]
  viability, T/C: 30.2%
[9]
  viability, T/C: 28.8%
[10]
  viability, T/C: 23.3%
Second compound 0.003 µM, first compound 0.00316 µM
  viability, T/C: 32.6%
Second compound 0.003 µM, first compound 0.01 µM
  viability, T/C: 26.3%
[13]
  viability, T/C: 23.6%
[14]
  viability, T/C: 29.8%
[15]
  viability, T/C: 29.5%
[16]
  viability, T/C: 27.4%
Second compound 0.00949 µM, first compound 0.00316 µM
  viability, T/C: 31%
Second compound 0.00949 µM, first compound 0.01 µM
  viability, T/C: 25%
[19]
  viability, T/C: 28.1%
[20]
  viability, T/C: 28.5%
[21]
  viability, T/C: 25.9%
[22]
  viability, T/C: 26.9%
Second compound 0.03 µM, first compound 0.00316 µM
  viability, T/C: 26.4%
Second compound 0.03 µM, first compound 0.01 µM
  viability, T/C: 23%
[25]
  viability, T/C: 25%
[26]
  viability, T/C: 21%
[27]
  viability, T/C: 16.9%
[28]
  viability, T/C: 21.8%
Second compound 0.0949 µM, first compound 0.00316 µM
  viability, T/C: 18.4%
Second compound 0.0949 µM, first compound 0.01 µM
  viability, T/C: 16.8%
[31]
  viability, T/C: 16%
[32]
  viability, T/C: 14.4%
[33]
  viability, T/C: 12.2%
[34]
  viability, T/C: 13.8%
Second compound 0.3 µM, first compound 0.00316 µM
  viability, T/C: 17.2%
Second compound 0.3 µM, first compound 0.01 µM
  viability, T/C: 13.7%
[37]
  viability, T/C: 14%
[38]
  viability, T/C: 11.8%
[39]
  viability, T/C: 12.9%
[40]
  viability, T/C: 11.1%

From PubChem BioAssay AID2060885 (Molecular Pharmacology Branch, DTP, NCI, 2025)
